Where two headings read alike, the source gives them in different places.
What was measured:
[1] = system: Cch-evoked bronchoconstriction in rats; assay: Bronchospasm, percentage of inhibition (Cch-induced bronchoconstriction, duration of action); assay type: in vivo, Male CD Sprague Dawley rats; conditions: rat; for sub-maximal inhibition Dose: Dose producing about 80% (sub-maximal) inhibition of the bronchospasm after 1 h, intratracheal; for inhibition at 16 h: inhibition of bronchospasm 16 h after intratracheal administration of the sub-maximal inhibition dose
Method: Protocol of Bronchospasm—Percentage of Inhibition
Male CD Sprague Dawley rats (220-250 g) were purchased from Charles River Laboratories Italy (Calco, Lecco). Prior to use animals were acclimated for at least 5 days to the local vivarium conditions (room temperature: 20-24° C.; relative humidity: 40-70%), having free access to standard rat chow and softened tap water. All the procedures were performed in animal operating rooms according to ethical guidelines for the conduct of animal research (D. L.vo 116/92).
Treatment with Test Compounds
Animals were anaesthetised with Urethane (1.2 g/kg, i.p.) and a laryngoscope was moved forward into the mouth to visualize the trachea and guide the insertion of the tip of a custom made small diameter cannula directly into the trachea and located 1-2 mm above the bifurcation. Test compounds were dissolved in 100% dimethyl sulphoxide (DMSO) at 10^−2 M. The target concentration was obtained by dilution of the DMSO stock in saline. Test compounds were instilled locally into the trachea in a volume of 125 μl.
In order to assess the residual inhibitory activity of test compounds at 1-16 hours after their administration, rats were surgically prepared. In order to assess the Cch-induced bronchoconstriction in rats, the infusion of physiological solution was stopped and the bronchospastic agent injected into the jugular vein using the same cannula. Soon after washing the cannula with saline to ensure the complete administration of the bronchoconstrictor agent, the saline infusion was started again. Body temperature was kept constant at 37° C. by a heated blanket.
The trachea was cannulated and the lungs were ventilated artificially with a small animal constant volume ventilator (rodent ventilator mod. 7025, Ugo Basile, Comerio, Varese, Italy) at a frequency of 80 strokes/min and at a tidal volume of 2.5 ml/kg. To avoid spontaneous breathing, the animals were injected intravenously (i.v.) with pancuronium bromide (2 mg/kg). Bronchoconstriction was induced by the i.v. injection of Cch 50 μg/kg. In control experiments, repeated injections of this dose produced reproducible short-lasting (1-2 min duration) bronchospasms. Bronchoconstriction, quantified as a reduction of tidal volume, was evaluated according to the method described by Konzett & Roessler in Konzett H. and Roessler R., Versuchanornungzu untersuchungen ande bronchialmuskulatur. Arch. Exp. Path. Pharmak.; 195:71-74 (1940), which is incorporated herein by reference in its entirety.
Systemic blood pressure and changes in airway resistance were monitored with a digital pressure transducer connected to a bridge amplifier (PowerLab; Ugo Basile, Italy) and recorded using Chart 5 software (Ugo Basile, Italy).
After stabilization of artificial breathing and blood pressure, animals were injected (i.v.) with Cch every 3 min, until 3 stable and reproducible basal responses were obtained. […] The effect of test compounds was expressed as % inhibition of Cch-evoked bronchoconstriction in time-matched, vehicle-treated, animals (controls).

[2] = biological target: Human M3 receptor membranes (Homo sapiens (Human), UniProt P20309); assay: M3 Receptor radioligand binding assay; conditions: M3 Receptor radioligand binding assay; for Ki: Ki from IC50 by Cheng and Prusoff
Method: M3 Receptor Radioligand Binding Assay:
The assay is carried out in 96-well polypropylene plates in a volume of 250 μl. […] The final assay concentration of DMSO is 0.5% (v/v). The plates are sealed and incubated for 2 h at room temperature on an orbital shaker (slow speed). Membranes are harvested onto 96-well unifilter GF/C filter plates pre-treated with 0.5% polyethyleneimine (v/v), using a filter manifold, washed four times with 200 μl of assay buffer. The plates are dried before addition of 50 μl of microscint-0, sealed then read in a Trilux Microbeta scintillation counter. IC50 values are determined from competition curves using a non-linear curve fitting program. Ki values are calculated from IC50 values by the Cheng and Prusoff equation.

Human recombinant PDE4B2 = Human recombinant PDE4B2 (Homo sapiens (Human), UniProt Q07343); assay: PDE4B2 HTRF assay; assay type: biochemical; conditions: PDE4B2 HTRF assay; read-out: PDE4B2 IC50 activity
Method: PDE4B2 activity is detected using the LANCE Ultra cAMP homogeneous time resolved fluorescence resonance energy transfer (TR-FRET) assay from Perkin Elmer. The assay is based on the competition between the europium (Eu) chelate-labeled cAMP tracer and sample cAMP for binding sites on cAMP-specific monoclonal antibodies (mAb) labelled with the ULight™ dye. The assay is carried out in 384-well low volume plates in a volume of 10 μl. Human recombinant PDE4B2 (80 pM) is incubated for 2 h with 3 nM cAMP in buffer containing 1×HBSS, 5 mM HEPES, 3 mM MgCl2, 0.1% BSA, pH 7.4 with or without test compounds. The enzymatic reactions are efficiently stopped by the addition of 500 μM IBMX present in the combined Stop/Detection buffer containing europium (Eu) chelate-labeled cAMP tracer and cAMP-specific monoclonal antibodies (mAb) labelled with the ULight™ dye. […] IC50 values are determined from competition curves using a non-linear curve fitting program.

[3] = system: smoking model of COPD in mice; conditions: cited from earlier work
COPD patients = conditions: cited from earlier work
[4] = patients with severe disease, frequent exacerbations and mucus hypersecretion

Human recombinant PDE4B2, sequence (Q07343 other isoform, or with tags, fused parts or gaps): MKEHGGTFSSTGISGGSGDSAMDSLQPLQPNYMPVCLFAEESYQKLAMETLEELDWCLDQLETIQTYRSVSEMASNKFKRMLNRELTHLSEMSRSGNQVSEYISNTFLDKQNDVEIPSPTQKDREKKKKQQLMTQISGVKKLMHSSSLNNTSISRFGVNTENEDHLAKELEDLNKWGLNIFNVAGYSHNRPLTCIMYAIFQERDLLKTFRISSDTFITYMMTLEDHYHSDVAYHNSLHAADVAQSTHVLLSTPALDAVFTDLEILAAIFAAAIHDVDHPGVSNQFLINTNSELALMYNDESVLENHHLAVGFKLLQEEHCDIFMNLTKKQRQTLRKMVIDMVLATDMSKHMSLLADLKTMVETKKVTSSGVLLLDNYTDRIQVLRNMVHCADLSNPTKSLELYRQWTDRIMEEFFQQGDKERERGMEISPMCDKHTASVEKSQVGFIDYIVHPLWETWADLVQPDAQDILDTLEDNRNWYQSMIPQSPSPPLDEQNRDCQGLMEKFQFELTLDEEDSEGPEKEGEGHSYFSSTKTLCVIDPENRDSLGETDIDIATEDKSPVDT
Human M3 receptor membranes, sequence (P20309 whole entry): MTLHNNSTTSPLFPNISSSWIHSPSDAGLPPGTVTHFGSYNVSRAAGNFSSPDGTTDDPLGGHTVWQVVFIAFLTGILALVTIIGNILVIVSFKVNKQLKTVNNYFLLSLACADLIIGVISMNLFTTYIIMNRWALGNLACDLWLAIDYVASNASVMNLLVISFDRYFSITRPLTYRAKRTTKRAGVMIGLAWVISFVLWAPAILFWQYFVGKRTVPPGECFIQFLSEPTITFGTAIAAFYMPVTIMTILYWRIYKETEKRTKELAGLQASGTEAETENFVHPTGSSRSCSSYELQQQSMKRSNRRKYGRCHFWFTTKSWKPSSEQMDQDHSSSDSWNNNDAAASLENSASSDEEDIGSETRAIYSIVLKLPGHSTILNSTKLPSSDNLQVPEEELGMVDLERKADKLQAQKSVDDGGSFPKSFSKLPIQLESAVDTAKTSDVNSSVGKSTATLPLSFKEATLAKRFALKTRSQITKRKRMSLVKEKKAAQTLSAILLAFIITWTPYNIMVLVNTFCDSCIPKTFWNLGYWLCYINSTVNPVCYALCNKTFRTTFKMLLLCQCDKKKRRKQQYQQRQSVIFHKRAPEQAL

Row | IC50 (Human recombinant PDE4B2) [nM] | IC50 ([2]; read-out: M3 IC50 activity) [nM] | SMILES | sub-maximal inhibition Dose [1] [nmol/kg] | inhibition at 16 h [1] [%] | other results
1 | – | – | COc1ccc([C@H](Cc2c(Cl)c[n+]([O-])cc2Cl)OC(=O)c2ccc(CNC(C(=O)OCC3CCN(C)CC3)c3ccccc3)s2)cc1OC (stereo partly drawn) [Example 87, [(1S)-2-(3,5-dichloro-1-oxido-pyridin-1-ium-4-yl)-1-(3,4-dimethoxyphenyl)ethyl] 5-[[[2-[(1-methyl-4-piperidyl)methoxy]-2-oxo-1-phenyl-ethyl]amino]methyl]thiophene-2-carboxylate] | 10 | >90 | –
2 | – | – | COc1ccc([C@H](Cc2c(Cl)c[n+]([O-])cc2Cl)OC(=O)c2ccc(CNC(C(=O)OC3CCN(C)CC3)c3ccccc3)s2)cc1OC (single isomer, unassigned) [Example 87c, reference compound] | 30 | <10 | Ki [2]: 0.3 nM; IC50 ([2]; read-out: M3 IC50): 0.5 nM
3 | – | – | COc1ccc([C@H](Cc2c(Cl)c[n+]([O-])cc2Cl)OC(=O)c2ccc(CNC(CO)(C(=O)OC3CCN(C)CC3)c3ccccc3)s2)cc1OC (single isomer, unassigned) [Example 105c, reference compound] | 10 | 35 | Ki [2]: 0.23 nM; IC50 ([2]; read-out: M3 IC50): 0.45 nM
4 | – | – | COc1ccc([C@H](Cc2c(Cl)c[n+]([O-])cc2Cl)OC(=O)c2ccc(CNC(C(=O)O[C@H]3CCN(C)C3)c3ccccc3)s2)cc1OC (single isomer, unassigned) [Example 78c, reference compound] | 100 | 26 | Ki [2]: 0.54 nM; IC50 ([2]; read-out: M3 IC50): 1.08 nM
5 | 1 to 10 | 10 to 100 | COc1ccc([C@H](Cc2c(Cl)c[n+]([O-])cc2Cl)OC(=O)c2ccc(CNC(C(=O)OCC3CCCCN3C)c3ccccc3)s2)cc1OC (stereo partly drawn) [Example 31, [(1S)-2-(3,5-dichloro-1-oxido-pyridin-1-ium-4-yl)-1-(3,4-dimethoxyphenyl)ethyl] 5-[[[2-[(1-methyl-2-piperidyl)methoxy]-2-oxo-1-phenyl-ethyl]amino]methyl]thiophene-2-carboxylate] | – | – | –
6 | – | – | COc1ccc([C@H](Cc2c(Cl)c[n+]([O-])cc2Cl)OC(=O)c2ccc(CNC(CO)(C(=O)OCC3CCN(C)CC3)c3ccccc3)s2)cc1OC (stereo partly drawn) [Example 105, [(1S)-2-(3,5-dichloro-1-oxido-pyridin-1-ium-4-yl)-1-(3,4-dimethoxyphenyl)ethyl] 5-[[[1-(hydroxymethyl)-2-[(1-methyl-4-piperidyl)methoxy]-2-oxo-1-phenyl-ethyl]amino]methyl]thiophene-2-carboxylate] | 30 | 88 | –
7 | 1 to 10 | 1 to 10 | COc1ccc(C(Cc2c(Cl)c[n+]([O-])cc2Cl)OC(=O)c2ccc(CNC(C(=O)OCC3CCN(C)CC3)c3cccc(O)c3)s2)cc1OCC1CC1 (stereo not drawn) [Example 47, [1-[3-(cyclopropylmethoxy)-4-methoxy-phenyl]-2-(3,5-dichloro-1-oxido-pyridin-1-ium-4-yl)ethyl]5-[[[1-(3-hydroxyphenyl)-2-[(1-methyl-4-piperidyl)methoxy]-2-oxo-ethyl]amino]methyl]thiophene-2-carboxylate] | – | – | –
8 | – | – | O=C(Nc1c(Cl)cncc1Cl)c1ccc(OC(F)F)c(OCC2CC2)c1 [roflumilast] | – | – | lung inflammation and emphysema [3]: inhibits lung inflammation and emphysema; reduction of numbers of neutrophils in sputum (COPD patients; COPD patients, oral, over 4 weeks): 36%; improvement of FEV 1 (COPD patients; [4]): approximately 50 mL; reduction of exacerbation (COPD patients; [4]): about 15%
9 | < 1 | 1 to 10 | COc1ccc([C@H](Cc2c(Cl)c[n+]([O-])cc2Cl)OC(=O)c2ccc(CNC(CO)(C(=O)OCC3CCN(C)CC3)c3cccs3)s2)cc1OC (mixture of isomers) [Example 37, [(1S)-2-(3,5-dichloro-1-oxido-pyridin-1-ium-4-yl)-1-(3,4-dimethoxyphenyl)ethyl]5-[[[1-(hydroxymethyl)-2-[(1-methyl-4-piperidyl)methoxy]-2-oxo-1-(2-thienyl)ethyl]amino]methyl]thiophene-2-carboxylate] | – | – | –
10 | 1 to 10 | 10 to 100 | COc1ccc([C@H](Cc2c(Cl)c[n+]([O-])cc2Cl)OC(=O)c2ccc(CNC(C(=O)OC[C@H]3CN(C)CCN3C)c3ccccc3)s2)cc1OC (stereo partly drawn) [Example 29, [(1S)-2-(3,5-dichloro-1-oxido-pyridin-1-ium-4-yl)-1-(3,4-dimethoxyphenyl)ethyl] 5-[[[2-[[(2R)-1,4-dimethylpiperazin-2-yl]methoxy]-2-oxo-1-phenyl-ethyl]amino]methyl]thiophene-2-carboxylate] | – | – | –

Row | SMILES | IC50 (Human recombinant PDE4B2) [nM] | IC50 ([2]; read-out: M3 IC50 activity) [nM] | sub-maximal inhibition Dose [1] [nmol/kg] | inhibition at 16 h [1] [%] | other results
11 | COc1ccc(C(Cc2c(Cl)c[n+]([O-])cc2Cl)OC(=O)c2ccc(CNC(C(=O)OCC3CCN(C)CC3)c3ccccc3)s2)cc1OC1CCCC1 (stereo not drawn) [Example 5, [1-[3-(cyclopentoxy)-4-methoxy-phenyl]-2-(3,5-dichloro-1-oxido-pyridin-1-ium-4-yl)ethyl] 5-[[[2-[(1-methyl-4-piperidyl)methoxy]-2-oxo-1-phenyl-ethyl]amino]methyl]thiophene-2-carboxylate] | 1 to 10 | 1 to 10 | – | – | –
12 | COc1ccc([C@H](Cc2c(Cl)c[n+]([O-])cc2Cl)OC(=O)c2ccc(CNC(C(=O)OC[C@H]3CCN(C)C3)c3ccccc3)s2)cc1OC (stereo partly drawn) [Example 78, [(1S)-2-(3,5-dichloro-1-oxido-pyridin-1-ium-4-yl)-1-(3,4-dimethoxyphenyl)ethyl] 5-[[[2-[[(3S)-1-methylpyrrolidin-3-yl]methoxy]-2-oxo-1-phenyl-ethyl]amino]methyl]thiophene-2-carboxylate] | – | 1 to 10 | 30 | 51 | –
